Data set [1] relates to A2780 (ovarian cancer). The data set can be described thus: cells. It counts as cell-based. As to conditions: CCK8, 48 h; for IC50: Homo sapiens, A2780. As for the experimental part:
(§1) Different types of cells were cultured with complete media (RPMI1640 (DMEM high sugar medium)+10% fetal bovine serum+1XP/S+sodium pyruvate 1 mM solution) in an incubator at 37° C. and 5% CO2 until the cells grew to a sufficient number, and the cells were collected, centrifuged at 1,000 g for 5 min, resuspended with an appropriate volume of a 10% RMPI1640 (DMEM high sugar medium) medium and counted. In a 96-well culture plate, 100 μL of cell culture fluid containing different concentrations of drugs was added, control wells (0.1% DMSO) with only corresponding drug solvents without drugs, as well as blank wells (Blank) with only the medium but without cells were set, and three parallel wells were set in each group. After that, the cells after cell counting were inoculated onto 96-well culture plates, with 100 μL of cell suspension per well, and an inoculation concentration of the cells was 5,000 cells (100 μL)/well. The plates were then cultured in a CO2 (5%) incubator at 37° C. for 48 h. After 48 h, 10 μL of a cell proliferation staining reagent (CCK8) was added to each well, the plates were incubated in a cell incubator for around 2 h, and an absorbance at 450 nm was detected.
(§2) Cell survival rates and median inhibitory concentrations of the drugs on the cells were calculated.
as §1, with “serum+1×P/S+sodium” for “serum+1XP/S+sodium”, “adjusted to an appropriate density.” for “counted.”
(§3) Cell survival rates and median inhibitory concentrations (IC50) of the drugs on the cells were calculated.

Data set [2] deals with A549 (non-small cell lung cancer). The data set can be described thus: cells. It counts as cell-based. As to conditions: CCK8, 48 h; for IC50: Homo sapiens, A549. The protocol:
as §1, §2
as §1, with “serum+1×P/S+sodium” for “serum+1XP/S+sodium”, “adjusted to an appropriate density.” for “counted.”
as §3

For data set [3], the system named is SJSA-1 (sarcoma tissue). The data set can be described thus: cells. It counts as cell-based. To be noted: CCK8, 48 h; for IC50: Homo sapiens, SJSA-1. The protocol:
as §1, §2
as §1, with “serum+1×P/S+sodium” for “serum+1XP/S+sodium”, “adjusted to an appropriate density.” for “counted.”
as §3

Data set [4] has as its system SKBR3 (breast cancer tissue). The data set can be described thus: cells. It counts as cell-based. As to conditions: CCK8, 48 h; for IC50: Homo sapiens, SK-BR-3. The protocol: as §1, §2
as §1, with “serum+1×P/S+sodium” for “serum+1XP/S+sodium”, “adjusted to an appropriate density.” for “counted.”
as §3

Data set [5] deals with colo320 (colorectal cancer tissue). The data set can be described thus: cells. It counts as cell-based. To be noted: CCK8, 48 h, Table 6. As for the experimental part:
as §1, with “serum+1×P/S+sodium” for “serum+1XP/S+sodium”, “adjusted to an appropriate density.” for “counted.”
as §3

Data set [6] concerns sarcoma SJSA-1 tumor model. The protocol:
Test objective: To investigate the antitumor efficacy of the above compounds in an animal tumor model of sarcoma SJSA-1.
(§4) Test drug: Polypeptide conjugate, Irinotecan, Belotecan and normal saline control group.
(§5) Test animals: 6-8 weeks old BALB/c mice, all female.
(§6) SJSA-1 cells were purchased from ATCC and cultured in a DMEM medium containing 10% fetal bovine serum at 37° C. in 5% CO2. Passaging was performed every three days, and cells within 15 generations were used. 2×10^7 corresponding cells were injected into right chests of nude mice subcutaneously. After a volume of the tumors reached at least 100 mm^3, the mice were grouped randomly, with three mice in each group. Then treatment was started, and the day when the treatment was started was the first day. […] The control group was administered with normal saline. Administration was performed once a week for three weeks.
as §6

Data set [7] relates to colo320 colorectal cancer tumor model. The protocol: Test objective: To investigate the antitumor efficacy of the above compounds in an animal tumor model of colo320 colorectal cancer.
as §4, §5
Passaging was performed every three days, and cells within 15 generations were used. 7.5×10^6 corresponding cells were injected into right chests of nude mice subcutaneously. After a volume of the tumors reached at least 120 mm^3, the mice were grouped randomly, with three mice in each group. Then treatment was started, and the day when the treatment was started was the first day. […] The control group was administered with normal saline. Administration was performed once a week for four weeks.

The nature of data set [8]: MTD determination in mice (Examples 27, 36, 44). It counts as in vivo. An excerpt: Test animals: 6-8 weeks old mice, all female; mice were grouped randomly, with six mice in each group, administered with drugs at different concentration gradients separately and monitored for 14 d. A mouse was euthanized at a loss of 20% of its initial weight and deemed to have died of poisoning.

[9] abbreviates: 5 mg/kg once a week for three weeks, Table 2.
Where [10] appears, read: 5 mg/kg once a week for three weeks, Table 7.
[11] abbreviates: 5 mg/kg once a week for four weeks, Table 3.
Where [12] appears, read: 5 mg/kg once a week for four weeks, Table 8.
The mark [13] stands for this setting: 15 mg/kg once a week for three weeks, Table 2.
Setting [14] is: 15 mg/kg once a week for three weeks, Table 7.
Setting [15] is: 15 mg/kg once a week for four weeks, Table 3.
Where [16] appears, read: 15 mg/kg once a week for four weeks, Table 8.
The mark [17] stands for this setting: Table 13 (Example 42), dose 15 mg/kg, once a week for four weeks, BALB/c mice.
[18] abbreviates: Table 14 (Example 43), dose 15 mg/kg, once a week for four weeks, BALB/c mice.

≈ marks a conversion by molar mass, not a printed value. Like-named read-outs stand apart in the source and are kept apart here.

With `CC[C@@]1(O)C(=O)OCc2c1cc1n(c2=O)Cc2c-1nc1ccccc1c2CCNC1CCCC1` [D8], in data set [1] (Table 1), the “IC50 A2780 (ovarian cancer)” value amounted to 0.015 µg/mL (≈ 0.0326 µM). In addition, the “IC50 Ovarian cancer tissue (A2780)” value in data set [1] (Table 6) was 0.015 µg/mL (≈ 0.0326 µM). Further, in data set [2] (Table 1), the “IC50 A549 (non-small cell lung cancer)” value was 0.016 µg/mL (≈ 0.0348 µM). Moreover, the “IC50 Non-small cell lung cancer tissue (A549)” value in data set [2] (Table 6) was determined as 0.016 µg/mL (≈ 0.0348 µM). Besides, the “IC50 SJSA-1 (sarcoma tissue)” value in data set [3] (Table 1) is 0.035 µg/mL (≈ 0.0762 µM). Besides, the “IC50 Sarcoma tissue (SJSA-1)” value in data set [3] (Table 6) is 0.035 µg/mL (≈ 0.0762 µM). Further, in data set [4] (Table 1), the “IC50 SKBR3 (breast cancer tissue)” value was 0.047 µg/mL (≈ 0.102 µM). Moreover, in data set [4] (Table 6), the “IC50 Breast cancer tissue (SKBR3)” value was determined as 0.047 µg/mL (≈ 0.102 µM). For the same compound, the “IC50 Colorectal cancer tissue (colo320)” value in data set [5] was determined as 0.042 µg/mL (≈ 0.0914 µM). In data set [6] (setting [9]), the “Mouse weight (%)” value is “+12%”, the “SJSA-1 (sarcoma tissue) mean tumor volume (mm^3)” value came to 1497.5 mm^3 and the “SJSA-1 (sarcoma) Growth rate (%)” value was 1295.77%. In addition, in data set [6] (setting [10]), the “Mouse weight (%)” value is listed as “+12%”, the “SJSA-1 (sarcoma tissue) growth rate (%)” value worked out at 1295.77% and the “SJSA-1 (sarcoma tissue) mean tumor volume (mm^3)” value worked out at 1497.5 mm^3. For the same compound, in data set [7] (setting [11]), the “Mouse weight (%)” value is −6%, the “colo320 (colorectal cancer cell) growth rate (%)” value (from here on “colo320 … (%)”) came out at 1082.65% and the “colo320 (colorectal cancer cell) mean tumor volume (mm^3)” value amounted to 1199.1 mm^3. Also, in data set [7] (setting [12]), the “Mouse weight (%)” value is recorded as −6%, the “colo320 … (%)” value came to 1082.65% and the “colo320 (colorectal cancer cell) mean tumor volume (mm^3)” value was determined as 1199.1 mm^3. This compound also displayed an MTD in data set [8] (mice, monitored for 14 d, Table 4) of 25 mg/kg. The compound also gave an MTD in data set [8] (mice, monitored for 14 d, Table 9) of 25 mg/kg.
What is called IC50 is the point on the concentration scale where inhibition reaches its midpoint. `CCc1c2c(nc3ccc(OC(=O)N4CCC(N5CCCCC5)CC4)cc13)-c1cc3c(c(=O)n1C2)COC(=O)[C@]3(O)CC` [Irinotecan, reference compound]: the IC50 in data set [1] (Table 1, read-out: IC50 A2780 (ovarian cancer)) stood at 0.16 µg/mL (≈ 0.273 µM); in data set [1] (Table 6, read-out: IC50 Ovarian cancer tissue (A2780)) it was 0.16 µg/mL (≈ 0.273 µM); in data set [2] (Table 1, read-out: IC50 A549 (non-small cell lung cancer)) it was 0.11 µg/mL (≈ 0.187 µM); in data set [2] (Table 6, read-out: IC50 Non-small cell lung cancer tissue (A549)), 0.11 µg/mL (≈ 0.187 µM); in data set [3] (Table 1, read-out: IC50 SJSA-1 (sarcoma tissue)), 0.11 µg/mL (≈ 0.187 µM); in data set [3] (Table 6, read-out: IC50 Sarcoma tissue (SJSA-1)), 0.11 µg/mL (≈ 0.187 µM). Moreover, the IC50 in data set [4] (Table 1, read-out: IC50 SKBR3 (breast cancer tissue)) came to 0.25 µg/mL (≈ 0.426 µM); in data set [4] (Table 6, read-out: IC50 Breast cancer tissue (SKBR3)), 0.25 µg/mL (≈ 0.426 µM); in data set [5] (Homo sapiens, COLO 320) it was 0.11 µg/mL (≈ 0.187 µM). Besides, the “Mouse weight (%)” value is reported as “+17%” in data set [6] (setting [13]); “+17%” in data set [6] (setting [14]); “+35%” in data set [7] (setting [15]); “+35%” in data set [7] (setting [16]); “+35%” in data set [7] (setting [17]); “+35%” in data set [7] (setting [18]). In addition, in data set [6] (setting [13]), the “SJSA-1 (sarcoma) Growth rate (%)” value stood at 798.05%. Also, the “SJSA-1 (sarcoma tissue) growth rate (%)” value in data set [6] (setting [14]) is recorded as 798.05%. Also, the “colo320 … (%)” value in data set [7] (setting [15]), in data set [7] (setting [16]), in data set [7] (setting [17]) and in data set [7] (setting [18]) was 815.39% in each case. Besides, the MTD in data set [8] (female, mouse, in vivo, 'around', read-out: MTD (as stated in dosage instructions)) was about 70 mg/kg; in data set [8] (female, mouse, in vivo, Table 15 (Example 44), mice, six per group, monitored for 14 d, read-out: MTD), 75 mg/kg; in data set [8] (female, mouse, in vivo, mice, monitored for 14 d, Table 4, read-out: MTD), 75 mg/kg; in data set [8] (female, mouse, in vivo, mice, monitored for 14 d, Table 9, read-out: MTD) it was 75 mg/kg.

The values above are taken from patent US20250235545A1, “POLYPEPTIDE CONJUGATE AND USE THEREOF” (SHANGHAI CHIXI BIOMEDICAL TECHNOLOGY CO., LTD, priority 2024, published 2025).
